Experimental data: publication PMC4490394 (Scientific Reports, 2015)
Several values for one entry are separate records, joined by “and”; a condition that tells them apart may be missing. Identical values can stand only once.

Tests used:
[1] = Quantitative whole-body autoradiography (QWBA); assay type: in vivo; details: rat, compound and its metabolites, data not shown
[2] = Body weight of mice bearing subcutaneous VCaP xenograft tumors; assay type: in vivo, castrated nude mice; details: for Change in body weight (%) d 3 / Change in body weight (%) d 9 / Change in body weight (%) d 16 / Change in body weight (%) d 23 / Change in body weight (%) d 30 / Change in body weight (%) d 37: individual animals, vs BW before treatment, 50 mg/kg
Description: BALB/c nude male mice (7 weeks old from Charles River, Germany) were subcutaneously injected with 2 million VCaP cells in 100 μL of RPMI-1640 medium and Matrigel (BD) (1:1). Tumor growth was monitored twice weekly by caliper measurements. The volume of the tumor was calculated according to the formula W^2 × L/2 (mm^3), where W is the shorter and L the longer diameter of the tumor. When the average tumor volume reached ~200 mm^3, mice were castrated or SHAM-operated under Avertin anesthesia. […] For all in vivo studies, Macrocol® (Merck) + propylene glycol +5% glucose (50:30:20, v/v/v) was used as a vehicle.

[3] = Pharmacokinetic parameters in mice after 7 days oral dosing; assay type: in vivo; details: male, BALB/c or Balb/cOlaHsd nude, mouse, plasma, 50 mg/kg bid oral
Description: Control mice received vehicle. […] Brain samples (without olfactory bulbs and medulla oblongata) from each group and time point were pooled and homogenized before the analysis. […] Plasma and brain concentration vs. time were evaluated by noncompartmental analysis using WinNonlin® Professional v. 5.2 software (Pharsight Corporation). Brain/plasma ratios were calculated based on AUC0–24 values for plasma and brain.

[4] = tested on: DU-145 prostate cancer cells; assay: Viability of AR-negative cells (WST-1); assay type: cell-based, human; details: increasing concentrations, 4 days
serum testosterone = assay: Serum testosterone in intact nude mice bearing orthotopic VCaP tumors; assay type: in vivo; details: 50 mg/kg bid oral, 3 weeks
Description: (§1) One million VCaP cells in 20 μL of RPMI-1640 medium were orthotopically injected into the dorsal prostate lobes of athymic nude male mice (7 weeks old from Harlan Winkelman, France). Tumor growth was followed by measuring serum PSA (ProStatus™ PSA EQM Kits, Wallac, Finland). […] At autopsy, blood samples were collected by heart puncture, clotted overnight at +4 °C, and centrifuged. For serum testosterone determination, 25-μL aliquots were extracted twice with 2 mL of diethyl ether and evaporated under nitrogen to dryness. The residues were reconstituted in PBS and measured using a standard radioimmunoassay as described previously.

AR(F876L) = target: T1, AR(F876L) (Homo sapiens, UniProt P10275, F877L)
T1 sequence (P10275 1-920 F877L): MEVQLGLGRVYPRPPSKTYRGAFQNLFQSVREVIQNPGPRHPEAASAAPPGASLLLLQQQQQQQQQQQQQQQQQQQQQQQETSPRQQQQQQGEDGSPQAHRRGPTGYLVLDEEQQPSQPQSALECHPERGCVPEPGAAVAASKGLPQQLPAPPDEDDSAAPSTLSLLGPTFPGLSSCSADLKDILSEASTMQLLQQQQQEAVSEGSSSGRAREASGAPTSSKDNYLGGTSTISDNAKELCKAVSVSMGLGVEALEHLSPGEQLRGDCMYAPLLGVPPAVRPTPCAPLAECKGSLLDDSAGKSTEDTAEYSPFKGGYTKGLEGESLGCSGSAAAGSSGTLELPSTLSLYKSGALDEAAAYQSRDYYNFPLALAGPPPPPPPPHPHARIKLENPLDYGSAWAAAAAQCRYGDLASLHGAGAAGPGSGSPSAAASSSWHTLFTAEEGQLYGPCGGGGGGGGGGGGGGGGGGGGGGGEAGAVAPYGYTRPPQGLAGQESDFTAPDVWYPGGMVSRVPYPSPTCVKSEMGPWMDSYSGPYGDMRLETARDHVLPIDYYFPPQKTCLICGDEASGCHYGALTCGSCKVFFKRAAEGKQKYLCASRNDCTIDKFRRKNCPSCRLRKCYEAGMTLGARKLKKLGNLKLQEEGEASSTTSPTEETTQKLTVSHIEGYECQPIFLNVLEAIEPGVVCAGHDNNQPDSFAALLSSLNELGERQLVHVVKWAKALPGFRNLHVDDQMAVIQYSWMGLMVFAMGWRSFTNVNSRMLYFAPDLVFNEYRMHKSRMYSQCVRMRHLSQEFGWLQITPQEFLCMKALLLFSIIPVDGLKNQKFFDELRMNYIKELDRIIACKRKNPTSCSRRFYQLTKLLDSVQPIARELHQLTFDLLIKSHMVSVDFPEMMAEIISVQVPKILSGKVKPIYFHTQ
Description: For one well in a 96-well plate, 190 ng of reporter construct DNA and 10 ng of receptor construct DNA were diluted in Opti-MEM® (Gibco). […] Luciferase activity was measured as described above.

orthotopic VCaP tumors = assay: Orthotopic VCaP xenograft, tumor growth; assay type: in vivo, nude mice; details: 50 mg/kg bid oral, 3 weeks, vs control group
Description: as §1

CC(O)c1cc(C(=O)N[C@@H](C)Cn2ccc(-c3ccc(C#N)c(Cl)c3)n2)[nH]n1 (some centres unmarked) [ODM-201]
access into the brain (QWBA) [1]: very low access
body weights during the treatment ([2]; 50 mg/kg twice daily oral, 37 days): did not decrease significantly
Change in body weight (%) d 3 ([2]; ODM-201 50 mg/kg bid oral): -0.4% and 0.0% and -2.8% and -1.9% and -1.3% and -4.9% and -2.9%
Change in body weight (%) d 9 ([2]; ODM-201 50 mg/kg bid oral): -2.1% and -2.5% and -9.8% and -0.9% and -0.5% and -4.5% and -6.9% and -1.9%
Change in body weight (%) d 16 ([2]; ODM-201 50 mg/kg bid oral): 1.7% and -4.9% and 5.6% and 3.3% and 0.4% and -4.5% and -1.0%
Change in body weight (%) d 23 ([2]; ODM-201 50 mg/kg bid oral): -1.7% and -6.5% and -2.8% and 0.5% and -5.4% and -11.4% and -7.2%
Change in body weight (%) d 30 ([2]; ODM-201 50 mg/kg bid oral): -1.3% and 0.8% and -6.1% and -3.8% and 3.8% and -3.6% and -1.6% and -3.4%
Change in body weight (%) d 37 ([2]; ODM-201 50 mg/kg bid oral): 0.4% and -6.1% and -0.5% and -6.7% and -1.2% and -6.3%
Change in body weight (%) d 3 ([2]; ODM-201 50 mg/kg qd oral): -2.5% (2×) and -1.3% and -2.0% and -2.9% and -0.5% and -2.3% and -3.8% and -4.7% and 9.0%
Change in body weight (%) d 9 ([2]; ODM-201 50 mg/kg qd oral): 2.2% and -1.7% and 3.5% and 6.9% and -4.9% and 3.9% and 1.8% and -0.8% and -7.7% and 7.5%
Change in body weight (%) d 16 ([2]; ODM-201 50 mg/kg qd oral): -1.3% and 3.0% and 14.7% and 2.5% and -5.7% and 6.9% and 0.5% and 3.8% and 1.3% and 9.5%
Change in body weight (%) d 23 ([2]; ODM-201 50 mg/kg qd oral): 6.0% and -8.2% and 4.4% and -4.9% and -1.3% and -0.5% and 0.9% and -0.4%
Change in body weight (%) d 30 ([2]; ODM-201 50 mg/kg qd oral): 1.5% and -3.9% and 2.5% and 8.3% and -4.1% and 2.0% and 1.8% and 0.0% and -0.4%
Change in body weight (%) d 37 ([2]; ODM-201 50 mg/kg qd oral): 5.0% and -6.5% and 1.5% and 6.9% and -7.8% and 2.5% and 1.8% and -0.8% and -4.6%
AUC ([3]; read-out: AUC24): 175 µg·h/mL
half-life ([3]; read-out: T 1/2 (plasma half-life) (converted)): 1.6 h
effect on viability of DU-145 cells [4]: no effect
effect on serum testosterone levels (serum testosterone): did not affect
functional activity (agonist/antagonist) on AR(F876L) (AR(F876L)): full antagonists
orthotopic VCaP tumor growth (orthotopic VCaP tumors): inhibited tumor growth significantly
